Patent publication US10722501B2 (BAYER AKTIENGESELLSCHAFT, priority 2016, dated 2020)

Each molecule was assayed against T1, recombinant full-length human prolyl endopeptidase (PREP) (Homo sapiens, UniProt P48147) (assay: Biochemical human prolyl endopeptidase (PREP) assay with fluorescently labelled substrate). Details: substrate Z-Gly-Pro-AMC 50 μM, 32° C., 60 min; some as mean values from multiple independent determinations.
T1 construct: To recombinant full-length human prolyl endopeptidase (PREP, R&D-Systems, 4308-SE); purchased R&D-Systems 4308-SE
T1 sequence (P48147 1-710): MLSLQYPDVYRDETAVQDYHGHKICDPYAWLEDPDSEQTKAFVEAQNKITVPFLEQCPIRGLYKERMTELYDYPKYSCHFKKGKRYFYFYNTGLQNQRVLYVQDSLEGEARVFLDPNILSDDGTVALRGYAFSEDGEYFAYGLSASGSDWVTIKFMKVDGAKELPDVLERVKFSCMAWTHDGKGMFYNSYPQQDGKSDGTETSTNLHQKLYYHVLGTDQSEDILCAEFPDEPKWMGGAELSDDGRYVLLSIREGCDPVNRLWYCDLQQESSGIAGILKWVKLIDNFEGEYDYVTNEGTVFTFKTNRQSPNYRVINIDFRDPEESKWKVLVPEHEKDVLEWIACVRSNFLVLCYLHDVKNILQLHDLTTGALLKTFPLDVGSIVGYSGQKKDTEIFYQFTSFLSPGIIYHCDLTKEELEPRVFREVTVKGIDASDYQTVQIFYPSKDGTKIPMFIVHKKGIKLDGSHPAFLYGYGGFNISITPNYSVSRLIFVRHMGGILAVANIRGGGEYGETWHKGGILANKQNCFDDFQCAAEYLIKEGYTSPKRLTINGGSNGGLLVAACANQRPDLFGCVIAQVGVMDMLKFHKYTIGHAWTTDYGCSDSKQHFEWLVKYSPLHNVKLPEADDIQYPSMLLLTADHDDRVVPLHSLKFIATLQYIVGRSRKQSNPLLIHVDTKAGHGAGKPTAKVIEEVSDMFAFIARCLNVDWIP
In short: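 0.4 nM (final, example) recombinant PREP in pH 7.5 Tris buffer with EDTA, GSH, BSA and Brij-35; compounds at 1 nM to 30 μM. Reaction started with 50 μM Z-Gly-Pro-AMC and followed by fluorescence (ex 360/em 465 nm) at 32° C for 60 min. IC50 interpolated from percent activity based on initial slopes.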

IC50 [nM]	Compound
48	O=C(C1CC(C(F)(F)F)Cc2nn(Cc3ccc(Cl)nc3)c(=O)n21)N1CCC(F)(F)C1 (single isomer, unassigned) [Example 231, (5RS,7RS)-2-[(6-Chloropyridin-3-yl)methyl]-5-[(3,3-difluoropyrrolidin-1-yl)carbonyl]-7-(trifluoromethyl)-5,6,7,8-tetrahydro[1,2,4]triazolo[4,3-a]pyridin-3(2H)-one]
400	O=C(C1CC(C(F)(F)F)Cc2nn(Cc3ccc(Cl)nc3)c(=O)n21)N1CCC(F)(F)C1 (single isomer, unassigned) [Example 232, (5RS,7RS)-2-[(6-Chloropyridin-3-yl)methyl]-5-[(3,3-difluoropyrrolidin-1-yl)carbonyl]-7-(trifluoromethyl)-5,6,7,8-tetrahydro[1,2,4]triazolo[4,3-a]pyridin-3(2H)-one]
120	O=C(C1CC(C(F)(F)F)Cc2nn(Cc3ccc(C(F)(F)F)nc3)c(=O)n21)N1CC(O)C1 (single isomer, unassigned) [Example 234, (5RS,7RS)-5-[(3-Hydroxyazetidin-1-yl)carbonyl]-7-(trifluoromethyl)-2-{[6-(trifluoromethyl)pyridin-3-yl]methyl}-5,6,7,8-tetrahydro[1,2,4]triazolo[4,3-a]pyridin-3(2H)-one]
0.94	O=C([C@@H]1C[C@@H](C(F)(F)F)Cc2nn(Cc3ccc(C(F)(F)F)nc3)c(=O)n21)N1CC[C@H](F)C1 (single isomer, unassigned) [Example 237]
73	O=C(C1CC(C(F)(F)F)Cc2nn(Cc3ccc(Cl)nc3)c(=O)n21)N1CC(F)C1 (single isomer, unassigned) [Example 238, (5RS,7RS)-2-[(6-Chloropyridin-3-yl)methyl]-5-[(3-fluoroazetidin-1-yl)carbonyl]-7-(trifluoromethyl)-5,6,7,8-tetrahydro[1,2,4]triazolo[4,3-a]pyridin-3(2H)-one]
11.2	O=C(C1CC(C(F)(F)F)Cc2nn(Cc3ccc(Cl)nc3)c(=O)n21)N1CC(F)C1 (single isomer, unassigned) [Example 239, (5RS,7RS)-2-[(6-Chloropyridin-3-yl)methyl]-5-[(3-fluoroazetidin-1-yl)carbonyl]-7-(trifluoromethyl)-5,6,7,8-tetrahydro[1,2,4]triazolo[4,3-a]pyridin-3(2H)-one]
4.2	O=C(C1CC(C(F)(F)F)Cc2nn(Cc3ccc(Cl)nc3)c(=O)n21)N1CC(F)C1 (single isomer, unassigned) [Example 240, (5RS,7RS)-2-[(6-Chloropyridin-3-yl)methyl]-5-[(3-fluoroazetidin-1-yl)carbonyl]-7-(trifluoromethyl)-5,6,7,8-tetrahydro[1,2,4]triazolo[4,3-a]pyridin-3(2H)-one]
0.623	O=C(C1CC(C(F)(F)F)Cc2nn(Cc3ccc(Cl)nc3)c(=O)n21)N1CC[C@H](F)C1 (single isomer, unassigned) [Example 243]
11	O=C(C1CC(C(F)(F)F)Cc2nn(Cc3ccc(Cl)nc3)c(=O)n21)N1CC[C@H](F)C1 (single isomer, unassigned) [Example 244]
1.3	O=C(C1CC(C(F)(F)F)Cc2nn(Cc3ccc(Cl)nc3)c(=O)n21)N1CC[C@@H](F)C1 (single isomer, unassigned) [Example 246]
910	O=C(C1CC(C(F)(F)F)Cc2nn(Cc3ccc(Cl)nc3)c(=O)n21)N1CC[C@@H](F)C1 (single isomer, unassigned) [Example 247]
12	O=C(C1CC(C(F)(F)F)Cc2nn(Cc3ccc(Cl)nc3)c(=O)n21)N1C[C@@H](F)[C@@H](F)C1 (single isomer, unassigned) [Example 248]
0.83	O=C(C1CC(C(F)(F)F)Cc2nn(Cc3ccc(Cl)nc3)c(=O)n21)N1C[C@@H](F)[C@@H](F)C1 (single isomer, unassigned) [Example 249]
0.92	O=C(C1CC(C(F)(F)F)Cc2nn(Cc3ccc(Cl)nc3)c(=O)n21)N1C[C@@H](F)[C@@H](F)C1 (single isomer, unassigned) [Example 250]
1.3	O=C(C1CC(C(F)(F)F)Cc2nn(Cc3ncc(Cl)cc3F)c(=O)n21)N1CC[C@H](F)C1 (single isomer, unassigned) [Example 265]

Further lines, the molecule ahead of its results:

Compound	IC50 [nM]
O=C(C1CC(C(F)(F)F)Cc2nn(Cc3ccnc(C(F)(F)F)c3F)c(=O)n21)N1CCC(F)(F)C1 (single isomer, unassigned) [Example 252, (5RS,7RS)-5-[(3,3-Difluoropyrrolidin-1-yl)carbonyl]-2-{[3-fluoro-2-(trifluoromethyl)pyridin-4-yl]methyl}-7-(trifluoromethyl)-5,6,7,8-tetrahydro[1,2,4]triazolo[4,3-a]pyridin-3(2H)-one]	3.1
O=C(C1CC(C(F)(F)F)Cc2nn(Cc3ccnc(C(F)(F)F)c3F)c(=O)n21)N1CC(F)C1 (single isomer, unassigned) [Example 253, (5RS,7RS)-5-[(3-Fluoroazetidin-1-yl)carbonyl]-2-{[3-fluoro-2-(trifluoromethyl)pyridin-4-yl]methyl}-7-(trifluoromethyl)-5,6,7,8-tetrahydro[1,2,4]triazolo[4,3-a]pyridin-3(2H)-one]	120
O=C(C1CC(C(F)(F)F)Cc2nn(Cc3ccnc(C(F)(F)F)c3F)c(=O)n21)N1CC(F)C1 (single isomer, unassigned) [Example 254, (5RS,7RS)-5-[(3-Fluoroazetidin-1-yl)carbonyl]-2-{[3-fluoro-2-(trifluoromethyl)pyridin-4-yl]methyl}-7-(trifluoromethyl)-5,6,7,8-tetrahydro[1,2,4]triazolo[4,3-a]pyridin-3(2H)-one]	30.5
O=C(C1CC(C(F)(F)F)Cc2nn(Cc3ccnc(C(F)(F)F)c3F)c(=O)n21)N1CC(F)C1 (single isomer, unassigned) [Example 255, (5RS,7RS)-5-[(3-Fluoroazetidin-1-yl)carbonyl]-2-{[3-fluoro-2-(trifluoromethyl)pyridin-4-yl]methyl}-7-(trifluoromethyl)-5,6,7,8-tetrahydro[1,2,4]triazolo[4,3-a]pyridin-3(2H)-one]	15.1
O=C(C1CC(C(F)(F)F)Cc2nn(Cc3ccnc(C(F)(F)F)c3F)c(=O)n21)N1CC[C@H](F)C1 (single isomer, unassigned) [Example 257]	0.595
O=C(C1CC(C(F)(F)F)Cc2nn(Cc3ccnc(C(F)(F)F)c3F)c(=O)n21)N1CC[C@H](F)C1 (single isomer, unassigned) [Example 258]	91.5
O=C(C1CC(C(F)(F)F)Cc2nn(Cc3ccnc(C(F)(F)F)c3F)c(=O)n21)N1C[C@@H](F)[C@@H](F)C1 (single isomer, unassigned) [Example 259]	17
O=C(C1CC(C(F)(F)F)Cc2nn(Cc3ccnc(C(F)(F)F)c3F)c(=O)n21)N1C[C@@H](F)[C@@H](F)C1 (single isomer, unassigned) [Example 260]	2.6
O=C(C1CC(C(F)(F)F)Cc2nn(Cc3ccnc(C(F)(F)F)c3F)c(=O)n21)N1C[C@@H](F)[C@@H](F)C1 (single isomer, unassigned) [Example 261]	1
O=C(C1CC(C(F)(F)F)Cc2nn(Cc3ccnc(C(F)(F)F)c3F)c(=O)n21)N1C[C@@H](F)[C@@H](F)C1 (single isomer, unassigned) [Example 262]	790
O=C(C1CC(C(F)(F)F)Cc2nn(Cc3ncc(Cl)cc3F)c(=O)n21)N1C[C@@H](F)[C@@H](F)C1 (single isomer, unassigned) [Example 267]	2.3
O=C(C1CC(C(F)(F)F)Cc2nn(Cc3cncc(Cl)c3)c(=O)n21)N1C[C@@H](F)[C@@H](F)C1 (single isomer, unassigned) [Example 268]	23
O=C(C1CC(C(F)(F)F)Cc2nn(Cc3cncc(Cl)c3)c(=O)n21)N1C[C@@H](F)[C@@H](F)C1 (single isomer, unassigned) [Example 269]	4.2
O=C(C1CCC(C(F)(F)F)c2nn(Cc3ccc(C(F)(F)F)nc3)c(=O)n21)N1CC[C@H](F)C1 (single isomer, unassigned) [Example 272]	0.695
O=C(C1C(C(F)(F)F)CCc2nn(Cc3ccnc(C(F)(F)F)c3F)c(=O)n21)N1CC[C@H](F)C1 (single isomer, unassigned) [Example 281]	2.2
O=C(C1C(C(F)(F)F)CCc2nn(Cc3ncc(Cl)cc3Cl)c(=O)n21)N1CC[C@H](F)C1 (single isomer, unassigned) [Example 283]	6.2
O=C(C1C(C(F)(F)F)CCc2nn(Cc3ccc(C(F)(F)F)nc3)c(=O)n21)N1CC[C@H](F)C1 (single isomer, unassigned) [Example 285]	1.3
O=C(C1C(C(F)(F)F)CCc2nn(Cc3ccc(C(F)(F)F)nc3)c(=O)n21)N1CC[C@H](F)C1 (single isomer, unassigned) [Example 286]	98.5
